Experimental data taken from publication PMC9229919, “4-Aminoquinoline-Based Adamantanes as Potential Anticholinesterase Agents in Symptomatic Treatment of Alzheimer’s Disease” (Pharmaceutics, 2022).
Read-outs that look alike come from different tables or passages of the source.

How the values were obtained:
[1] = standard compounds of the interpolation method; cited from earlier work
[2] = molecular target: T1, purified human BChE (Homo sapiens, UniProt P06276); assay: biochemical; format: biochemical
T1 construct: possibly also a gift of Dr Florian Nachon (the sentence is ambiguous)
Method in brief: (§1)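 Modified Ellman assay with acetylthiocholine and DTNB in 0.1 M sodium phosphate pH 7.4 (enzymes diluted with 0.1% BSA), ≤0.2% DMSO, 25 °C. At least three inhibitor concentrations per substrate level; Ki,app from Hunter–Downs equation, Ki from y-intercept and inhibition type from Ki,app vs [S].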

[3] = molecular target: T2, recombinant human AChE (Homo sapiens, UniProt P22303); assay: biochemical; format: biochemical; conditions: for IS: IS = Ki(BChE)/Ki(AChE), IS > 1 selective to AChE
T2 construct: gift of Dr Florian Nachon (Armed Forces Biomedical Research Institute, Brétigny-sur-Orge, France)
Method in brief: as §1

[4] = Ferric reducing antioxidant power (FRAP) assay; conditions: mean ± standard error of three experiments;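 note: expressed as µM Fe2+ equivalents from an FeSO4·7H2O standard curve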
Method in brief: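 Compounds at 10 and 100 µM were mixed with FRAP reagent (300 mM acetate buffer pH 3.6, TPTZ in HCl, FeCl3, 10:1:1) and incubated 60 min at 37 °C. Fe^2+-TPTZ formation read at 593 nm against a blank. Values derived from an Fe2SO4·7H2O standard curve, three independent experiments.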

[5] = Reverse-phase thin-layer chromatographic lipophilicity (RF, RM0); format: physicochemical; conditions: for RM0: intercept of RM = RM0 + bC; for b: slope of RM = RM0 + bC; for RF, Methanol/Water/Hydrochloric acid (conc.), mobile phase I / RF, Dioxane/Water/Hydrochloric acid (conc.), mobile phase II / RF, Methanol/Water/Hydrochloric acid (conc.), mobile phase II / RF, Acetone/Water/Hydrochloric acid (conc.), mobile phase III / RF, Dioxane/Water/Hydrochloric acid (conc.), mobile phase III / RF, Methanol/Water/Hydrochloric acid (conc.), mobile phase III / RF, Dioxane/Water/Hydrochloric acid (conc.), mobile phase IV / RF, Acetone/Water/Hydrochloric acid (conc.), mobile phase IV / RF, Methanol/Water/Hydrochloric acid (conc.), mobile phase IV / RF, Acetone/Water/Hydrochloric acid (conc.), mobile phase IX / RF, Methanol/Water/Hydrochloric acid (conc.), mobile phase IX / RF, Dioxane/Water/Hydrochloric acid (conc.), mobile phase V / RF, Acetone/Water/Hydrochloric acid (conc.), mobile phase V / RF, Methanol/Water/Hydrochloric acid (conc.), mobile phase V / RF, Dioxane/Water/Hydrochloric acid (conc.), mobile phase VI / RF, Acetone/Water/Hydrochloric acid (conc.), mobile phase VI / RF, Methanol/Water/Hydrochloric acid (conc.), mobile phase VI / RF, Acetone/Water/Hydrochloric acid (conc.), mobile phase VII / RF, Methanol/Water/Hydrochloric acid (conc.), mobile phase VII / RF, Acetone/Water/Hydrochloric acid (conc.), mobile phase VIII / RF, Methanol/Water/Hydrochloric acid (conc.), mobile phase VIII: RP-18 silica; for RF, Methanol/Water/Hydrochloric acid (conc.), mobile phase I: I = 90%MeOH/5%H2O/5%HCl; for RF, Dioxane/Water/Hydrochloric acid (conc.), mobile phase II: II = 80%Dioxane/15%H2O/5%HCl; for RF, Methanol/Water/Hydrochloric acid (conc.), mobile phase II: II = 85%MeOH/10%H2O/5%HCl; for RF, Acetone/Water/Hydrochloric acid (conc.), mobile phase III: III = 70%AC/25%H2O/5%HCl; for RF, Dioxane/Water/Hydrochloric acid (conc.), mobile phase III: III = 70%Dioxane/25%H2O/5%HCl; for RF, Methanol/Water/Hydrochloric acid (conc.), mobile phase III: III = 80%MeOH/15%H2O/5%HCl; for RF, Dioxane/Water/Hydrochloric acid (conc.), mobile phase IV: IV = 60%Dioxane/35%H2O/5%HCl; for RF, Acetone/Water/Hydrochloric acid (conc.), mobile phase IV: IV = 65%AC/30%H2O/5%HCl; for RF, Methanol/Water/Hydrochloric acid (conc.), mobile phase IV: IV = 75%MeOH/20%H2O/5%HCl; for RF, Acetone/Water/Hydrochloric acid (conc.), mobile phase IX: IX = 40%AC/55%H2O/5%HCl; for RF, Methanol/Water/Hydrochloric acid (conc.), mobile phase IX: IX = 50%MeOH/45%H2O/5%HCl; for RF, Dioxane/Water/Hydrochloric acid (conc.), mobile phase V: V = 50%Dioxane/45%H2O/5%HCl; for RF, Acetone/Water/Hydrochloric acid (conc.), mobile phase V: V = 60%AC/35%H2O/5%HCl; for RF, Methanol/Water/Hydrochloric acid (conc.), mobile phase V: V = 70%MeOH/25%H2O/5%HCl; for RF, Dioxane/Water/Hydrochloric acid (conc.), mobile phase VI: VI = 40%Dioxane/55%H2O/5%HCl; for RF, Acetone/Water/Hydrochloric acid (conc.), mobile phase VI: VI = 55%AC/40%H2O/5%HCl; for RF, Methanol/Water/Hydrochloric acid (conc.), mobile phase VI: VI = 65%MeOH/30%H2O/5%HCl; for RF, Acetone/Water/Hydrochloric acid (conc.), mobile phase VII: VII = 50%AC/45%H2O/5%HCl; for RF, Methanol/Water/Hydrochloric acid (conc.), mobile phase VII: VII = 60%MeOH/35%H2O/5%HCl; for RF, Acetone/Water/Hydrochloric acid (conc.), mobile phase VIII: VIII = 45%AC/50%H2O/5%HCl; for RF, Methanol/Water/Hydrochloric acid (conc.), mobile phase VIII: VIII = 55%MeOH/40%H2O/5%HCl
Method in brief: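 Reverse-phase TLC using mobile phases of methanol, acetone or dioxane with water and hydrochloric acid. Methanol varied in 10% steps; development distance 4.5 cm, ambient temperature (22±2 °C). RF measured and RM0 derived from retention.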

[6] = logarithm of Ki in µM, BChE, dependent variable of the QSAR model, read-out: Y Measured 2 log(ki)Bche, log (Ki/µM BChE) (converted)
[7] = ± standard error, 25 °C, ATCh substrate, read-out: Ki BChE
[8] = log (Ki/µM AChE), read-out: Y Measured 1 log(ki)Ache (converted)
[9] = ± standard error, 25 °C, ATCh substrate, read-out: Ki AChE
[10] = Acetone/Water/Hydrochloric acid (conc.)
[11] = Dioxane/Water/Hydrochloric acid (conc.)
[12] = Methanol/Water/Hydrochloric acid (conc.)

T1 sequence (P06276 29-602): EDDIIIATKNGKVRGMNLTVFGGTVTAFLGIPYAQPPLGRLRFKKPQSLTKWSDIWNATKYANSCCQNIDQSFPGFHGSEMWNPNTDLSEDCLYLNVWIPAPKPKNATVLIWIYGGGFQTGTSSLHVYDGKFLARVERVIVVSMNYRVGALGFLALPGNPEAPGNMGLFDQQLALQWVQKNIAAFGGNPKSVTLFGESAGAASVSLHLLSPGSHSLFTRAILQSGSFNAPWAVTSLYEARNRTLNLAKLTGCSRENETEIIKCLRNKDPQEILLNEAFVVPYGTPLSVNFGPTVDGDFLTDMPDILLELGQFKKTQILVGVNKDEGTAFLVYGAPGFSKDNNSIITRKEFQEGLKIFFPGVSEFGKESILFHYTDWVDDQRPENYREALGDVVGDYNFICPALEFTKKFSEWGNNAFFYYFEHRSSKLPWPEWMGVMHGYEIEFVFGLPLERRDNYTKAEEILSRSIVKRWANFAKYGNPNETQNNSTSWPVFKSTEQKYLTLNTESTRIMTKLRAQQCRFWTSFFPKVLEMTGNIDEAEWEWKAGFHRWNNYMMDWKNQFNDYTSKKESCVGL
T2 sequence (P22303 32-614): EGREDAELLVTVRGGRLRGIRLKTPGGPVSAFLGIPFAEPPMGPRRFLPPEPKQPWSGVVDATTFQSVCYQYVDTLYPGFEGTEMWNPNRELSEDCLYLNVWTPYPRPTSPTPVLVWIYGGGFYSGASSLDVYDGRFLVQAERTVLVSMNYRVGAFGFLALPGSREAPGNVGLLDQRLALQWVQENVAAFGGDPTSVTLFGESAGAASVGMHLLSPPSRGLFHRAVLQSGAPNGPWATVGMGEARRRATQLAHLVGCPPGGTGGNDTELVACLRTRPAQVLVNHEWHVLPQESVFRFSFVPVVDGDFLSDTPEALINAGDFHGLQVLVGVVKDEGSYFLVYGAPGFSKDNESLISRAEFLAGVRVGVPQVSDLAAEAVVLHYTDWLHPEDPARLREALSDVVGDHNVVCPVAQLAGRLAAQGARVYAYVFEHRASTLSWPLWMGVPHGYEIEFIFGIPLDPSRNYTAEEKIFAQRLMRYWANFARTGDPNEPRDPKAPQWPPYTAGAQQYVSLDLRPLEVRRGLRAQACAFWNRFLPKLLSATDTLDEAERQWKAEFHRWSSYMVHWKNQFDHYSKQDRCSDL

Compound | Ki [2, 6] [µM] | Ki [2, 7] [µM] | IS [3] | Ki [3, 8] [µM] | Ki [3, 9] [µM] | FRAP ([4]; 10 µM compound) [µM] | FRAP ([4]; 100 µM compound) [µM] | RM0 [5, 10] | b [5, 10] | RM0 [5, 11] | b [5, 11] | RM0 [5, 12] | b [5, 12] | RF, Methanol/Water/Hydrochloric acid (conc.), mobile phase I [5] | RF, Dioxane/Water/Hydrochloric acid (conc.), mobile phase II [5] | RF, Methanol/Water/Hydrochloric acid (conc.), mobile phase II [5] | RF, Acetone/Water/Hydrochloric acid (conc.), mobile phase III [5] | RF, Dioxane/Water/Hydrochloric acid (conc.), mobile phase III [5] | RF, Methanol/Water/Hydrochloric acid (conc.), mobile phase III [5] | RF, Dioxane/Water/Hydrochloric acid (conc.), mobile phase IV [5] | also measured
Oc1ccc(Cl)cc1Cl [2,4-dihlorfenol] |  |  |  |  |  |  |  |  |  |  |  |  |  |  |  |  |  |  |  |  | pKa1 [1]: 7.89
Oc1cccc2ccccc12 [Compound 1-naftol] |  |  |  |  |  |  |  |  |  |  |  |  |  |  |  |  |  |  |  |  | pKa1 [1]: 9.34
Clc1ccc2c(N3CCN(CC45CC6CC(CC(C6)C4)C5)CC3)ccnc2c1 [Compound 20] | 25.1 | 25 ± 1 | 2.7 | 9.4 | 9.4 ± 0.4 | 2.9 ± 1.1 | 6.3 ± 1.6 | 1.432 | 2.592 | 0.3825 | 1.224 | 1.5449 | 2.158 | 0.67 | 0.75 | 0.7 | 0.69 | 0.76 | 0.58 | 0.78 | decrease in BChE inhibition vs compound 5 [2]: up to 275 times; RF, Acetone/Water/Hydrochloric acid (conc.), mobile phase IV [5]: 0.65; RF, Methanol/Water/Hydrochloric acid (conc.), mobile phase IV [5]: 0.56; RF, Acetone/Water/Hydrochloric acid (conc.), mobile phase IX [5]: 0.28; RF, Methanol/Water/Hydrochloric acid (conc.), mobile phase IX [5]: 0.22; RF, Dioxane/Water/Hydrochloric acid (conc.), mobile phase V [5]: 0.63; RF, Acetone/Water/Hydrochloric acid (conc.), mobile phase V [5]: 0.58; RF, Methanol/Water/Hydrochloric acid (conc.), mobile phase V [5]: 0.48; RF, Dioxane/Water/Hydrochloric acid (conc.), mobile phase VI [5]: 0.5; RF, Acetone/Water/Hydrochloric acid (conc.), mobile phase VI [5]: 0.51; RF, Methanol/Water/Hydrochloric acid (conc.), mobile phase VI [5]: 0.45; RF, Acetone/Water/Hydrochloric acid (conc.), mobile phase VII [5]: 0.42; RF, Methanol/Water/Hydrochloric acid (conc.), mobile phase VII [5]: 0.38; RF, Acetone/Water/Hydrochloric acid (conc.), mobile phase VIII [5]: 0.35; RF, Methanol/Water/Hydrochloric acid (conc.), mobile phase VIII [5]: 0.31
Clc1ccc2c(N3CCN(CCC45CC6CC(CC(C6)C4)C5)CC3)ccnc2c1 [Compound 21] | 5.6 | 5.6 ± 0.6 | 2.7 | 2.1 | 2.1 ± 0.4 | 6.0 ± 2.0 | 15 ± 5 | 1.611 | 2.562 | 0.7539 | 1.607 | 2.219 | 2.906 | 0.68 | 0.73 | 0.65 | 0.59 | 0.71 | 0.51 | 0.71 | RF, Acetone/Water/Hydrochloric acid (conc.), mobile phase IV [5]: 0.53; RF, Methanol/Water/Hydrochloric acid (conc.), mobile phase IV [5]: 0.51; RF, Acetone/Water/Hydrochloric acid (conc.), mobile phase IX [5]: 0.17; RF, Methanol/Water/Hydrochloric acid (conc.), mobile phase IX [5]: 0.12; RF, Dioxane/Water/Hydrochloric acid (conc.), mobile phase V [5]: 0.52; RF, Acetone/Water/Hydrochloric acid (conc.), mobile phase V [5]: 0.44; RF, Methanol/Water/Hydrochloric acid (conc.), mobile phase V [5]: 0.45; RF, Dioxane/Water/Hydrochloric acid (conc.), mobile phase VI [5]: 0.39; RF, Acetone/Water/Hydrochloric acid (conc.), mobile phase VI [5]: 0.4; RF, Methanol/Water/Hydrochloric acid (conc.), mobile phase VI [5]: 0.36; RF, Acetone/Water/Hydrochloric acid (conc.), mobile phase VII [5]: 0.35; RF, Methanol/Water/Hydrochloric acid (conc.), mobile phase VII [5]: 0.27; RF, Acetone/Water/Hydrochloric acid (conc.), mobile phase VIII [5]: 0.29; RF, Methanol/Water/Hydrochloric acid (conc.), mobile phase VIII [5]: 0.18
Clc1ccc2c(NCCCN3CCN(CCCNCC45CC6CC(CC(C6)C4)C5)CC3)ccnc2c1 [Compound 22] | 3.3 | 3.3 ± 0.2 | 4.8 | 0.69 | 0.69 ± 0.02 | 11 ± 3 | 34 ± 8 | 1.4989 | 2.763 | 0.5478 | 1.493 | 1.56 | 2.199 | 0.67 | 0.78 | 0.7 | 0.71 | 0.76 | 0.6 | 0.78 | RF, Acetone/Water/Hydrochloric acid (conc.), mobile phase IV [5]: 0.68; RF, Methanol/Water/Hydrochloric acid (conc.), mobile phase IV [5]: 0.59; RF, Acetone/Water/Hydrochloric acid (conc.), mobile phase IX [5]: 0.28; RF, Methanol/Water/Hydrochloric acid (conc.), mobile phase IX [5]: 0.22; RF, Dioxane/Water/Hydrochloric acid (conc.), mobile phase V [5]: 0.6; RF, Acetone/Water/Hydrochloric acid (conc.), mobile phase V [5]: 0.61; RF, Methanol/Water/Hydrochloric acid (conc.), mobile phase V [5]: 0.5; RF, Dioxane/Water/Hydrochloric acid (conc.), mobile phase VI [5]: 0.48; RF, Acetone/Water/Hydrochloric acid (conc.), mobile phase VI [5]: 0.51; RF, Methanol/Water/Hydrochloric acid (conc.), mobile phase VI [5]: 0.45; RF, Acetone/Water/Hydrochloric acid (conc.), mobile phase VII [5]: 0.43; RF, Methanol/Water/Hydrochloric acid (conc.), mobile phase VII [5]: 0.38; RF, Acetone/Water/Hydrochloric acid (conc.), mobile phase VIII [5]: 0.36; RF, Methanol/Water/Hydrochloric acid (conc.), mobile phase VIII [5]: 0.31
Clc1ccc2c(NCCCN3CCN(CCCNCCC45CC6CC(CC(C6)C4)C5)CC3)ccnc2c1 [Compound 23] | 1.8 | 1.8 ± 0.2 | 4.1 | 0.44 | 0.44 ± 0.09 | 1.4 ± 0.1 | 20 ± 5 | 1.784 | 2.934 | 0.7935 | 1.661 | 2.211 | 2.892 | 0.64 | 0.73 | 0.66 | 0.62 | 0.71 | 0.54 | 0.71 | RF, Acetone/Water/Hydrochloric acid (conc.), mobile phase IV [5]: 0.58; RF, Methanol/Water/Hydrochloric acid (conc.), mobile phase IV [5]: 0.53; RF, Acetone/Water/Hydrochloric acid (conc.), mobile phase IX [5]: 0.15; RF, Methanol/Water/Hydrochloric acid (conc.), mobile phase IX [5]: 0.12; RF, Dioxane/Water/Hydrochloric acid (conc.), mobile phase V [5]: 0.51; RF, Acetone/Water/Hydrochloric acid (conc.), mobile phase V [5]: 0.48; RF, Methanol/Water/Hydrochloric acid (conc.), mobile phase V [5]: 0.44; RF, Dioxane/Water/Hydrochloric acid (conc.), mobile phase VI [5]: 0.38; RF, Acetone/Water/Hydrochloric acid (conc.), mobile phase VI [5]: 0.42; RF, Methanol/Water/Hydrochloric acid (conc.), mobile phase VI [5]: 0.37; RF, Acetone/Water/Hydrochloric acid (conc.), mobile phase VII [5]: 0.35; RF, Methanol/Water/Hydrochloric acid (conc.), mobile phase VII [5]: 0.25; RF, Acetone/Water/Hydrochloric acid (conc.), mobile phase VIII [5]: 0.31; RF, Methanol/Water/Hydrochloric acid (conc.), mobile phase VIII [5]: 0.18
c1ccc2cc3ccccc3cc2c1 [antracen] |  |  |  |  |  |  |  |  |  |  |  |  |  |  |  |  |  |  |  |  | logP [1]: 4.45
c1ccc2c(c1)ccc1ccccc12 [fenantren] |  |  |  |  |  |  |  |  |  |  |  |  |  |  |  |  |  |  |  |  | logP [1]: 4.46
c1ccc2c(c1)Cc1ccccc1-2 [fluoren] |  |  |  |  |  |  |  |  |  |  |  |  |  |  |  |  |  |  |  |  | logP [1]: 4.18
O=C1CN=C(c2ccccc2Cl)c2cc([N+](=O)[O-])ccc2N1 [klonazepam] |  |  |  |  |  |  |  |  |  |  |  |  |  |  |  |  |  |  |  |  | logP [1]: 2.41; pKa1 [1]: 10.5; pKa2 [1]: 1.5
